Patent US10414811B2, “Protease-resistant lipidated GLP-1 analogs” (MEDIMMUNE LIMITED, priority 2015, dated 2019)
Where two headings read alike, the source gives them in different places. Each block holds one compound with its values, some of them ahead of it. Numbered stars: 1 amine (or outer) side, 2 acyl side, 3 side chain; on linkers, the order of the positions; unused ones are H or OH. Square brackets hold non-standard residues; d marks the D form. Side chains are listed from the residue outwards. Peptide text beside a SMILES is read from it. * marks the point of attachment. γGlu = O=C(O)[C@H](CCC(=O)[*:2])N[*:1]; Palmitoyl = CCCCCCCCCCCCCCCC(=O)*; αMeF = C[C@](N)(Cc1ccccc1)C(=O)O; αMeK = C[C@](N)(CCCCN)C(=O)O; Lauroyl = CCCCCCCCCCCC(=O)*; αMeS = C[C@](N)(CO)C(=O)O; AEEA = NCCOCCOCC(=O)O; Aib = CC(C)(N)C(=O)O

What was measured:
[1] = target: T1, GLP-1R (INS1e assay) (Rattus norvegicus, UniProt P32301); experiment: INS1e assay, cAMP activity at GLP-1R; type: cell-based
T1 construct: endogenous in cells; host or cells: INS-1E cells
T1 sequence (P32301 22-463): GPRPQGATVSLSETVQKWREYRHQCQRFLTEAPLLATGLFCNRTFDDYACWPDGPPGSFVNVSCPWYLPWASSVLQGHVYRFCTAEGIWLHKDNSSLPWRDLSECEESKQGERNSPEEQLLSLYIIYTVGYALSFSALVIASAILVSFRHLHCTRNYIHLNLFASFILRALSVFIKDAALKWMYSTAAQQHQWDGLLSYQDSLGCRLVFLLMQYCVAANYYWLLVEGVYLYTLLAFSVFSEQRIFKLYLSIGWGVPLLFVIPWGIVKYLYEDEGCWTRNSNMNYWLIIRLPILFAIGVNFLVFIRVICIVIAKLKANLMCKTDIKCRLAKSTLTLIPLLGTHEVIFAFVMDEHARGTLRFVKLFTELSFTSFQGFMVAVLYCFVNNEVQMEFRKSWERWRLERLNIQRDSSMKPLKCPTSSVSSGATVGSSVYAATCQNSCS
Procedure, shortened: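 cAMP was quantified by two-step HTRF, using anti-cAMP cryptate donor and cAMP-d2 acceptor, each diluted 1/20 in conjugate and lysis buffer. EC50 values of the synthetic peptides were derived from the cAMP readout.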

[2] = target: T2, human glucagon receptor (GCGR) (Homo sapiens, UniProt P47871); experiment: cAMP assay, human GCGR cells; type: cell-based; settings: cAMP assay
T2 construct: expressed in transfected cells
T2 sequence (P47871 26-477): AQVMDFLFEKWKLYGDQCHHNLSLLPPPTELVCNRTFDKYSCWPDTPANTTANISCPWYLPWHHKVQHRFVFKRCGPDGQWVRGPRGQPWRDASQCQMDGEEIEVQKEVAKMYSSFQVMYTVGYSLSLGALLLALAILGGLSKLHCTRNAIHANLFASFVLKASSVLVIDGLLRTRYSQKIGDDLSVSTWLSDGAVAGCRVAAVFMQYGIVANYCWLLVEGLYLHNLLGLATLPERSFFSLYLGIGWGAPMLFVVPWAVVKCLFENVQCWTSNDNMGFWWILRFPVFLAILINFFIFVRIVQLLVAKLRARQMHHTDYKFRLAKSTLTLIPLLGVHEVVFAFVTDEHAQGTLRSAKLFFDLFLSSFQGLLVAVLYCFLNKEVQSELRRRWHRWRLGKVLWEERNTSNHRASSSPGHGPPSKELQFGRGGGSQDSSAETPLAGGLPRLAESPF
Procedure, shortened: (§1)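 Peptide-stimulated cAMP measured by two-step HTRF after a 30 min room-temperature incubation with receptor-expressing cells (hGLP-1R, hGIPR at 1×10^5 cells/ml; hGCGR at 2×10^5 cells/ml). Duplicate dilutions; EC50 from 4-parameter logistic fit of % Delta F.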

[3] = target: T3, human glucose-dependent insulinotropic peptide receptor (GIPR) (Homo sapiens, UniProt P48546); experiment: cAMP assay, human GIPR cells; type: cell-based; settings: cAMP assay
T3 construct: expressed in transfected cells
T3 sequence (P48546 22-466): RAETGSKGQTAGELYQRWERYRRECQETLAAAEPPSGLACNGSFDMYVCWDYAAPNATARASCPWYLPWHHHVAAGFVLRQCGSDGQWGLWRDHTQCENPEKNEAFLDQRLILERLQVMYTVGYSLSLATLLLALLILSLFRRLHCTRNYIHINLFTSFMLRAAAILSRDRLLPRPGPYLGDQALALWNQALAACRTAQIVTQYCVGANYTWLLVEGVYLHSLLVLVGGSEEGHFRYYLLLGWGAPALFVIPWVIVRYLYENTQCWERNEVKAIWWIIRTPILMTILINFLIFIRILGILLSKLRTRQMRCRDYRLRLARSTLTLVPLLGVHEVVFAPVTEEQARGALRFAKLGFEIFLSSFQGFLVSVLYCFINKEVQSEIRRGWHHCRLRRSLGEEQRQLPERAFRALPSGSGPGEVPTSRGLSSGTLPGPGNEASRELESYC
Procedure, shortened: as §1

[4] = target: T4, Neprilysin (Homo sapiens, UniProt P08473); experiment: Proteolytic resistance to neprilysin (% remaining peptide, RP-HPLC AUC); type: in vitro ADME; settings: 37° C., pH 8.3
T4 construct: purchased R&D Systems 1182-ZNC-010
T4 sequence (P08473 whole entry): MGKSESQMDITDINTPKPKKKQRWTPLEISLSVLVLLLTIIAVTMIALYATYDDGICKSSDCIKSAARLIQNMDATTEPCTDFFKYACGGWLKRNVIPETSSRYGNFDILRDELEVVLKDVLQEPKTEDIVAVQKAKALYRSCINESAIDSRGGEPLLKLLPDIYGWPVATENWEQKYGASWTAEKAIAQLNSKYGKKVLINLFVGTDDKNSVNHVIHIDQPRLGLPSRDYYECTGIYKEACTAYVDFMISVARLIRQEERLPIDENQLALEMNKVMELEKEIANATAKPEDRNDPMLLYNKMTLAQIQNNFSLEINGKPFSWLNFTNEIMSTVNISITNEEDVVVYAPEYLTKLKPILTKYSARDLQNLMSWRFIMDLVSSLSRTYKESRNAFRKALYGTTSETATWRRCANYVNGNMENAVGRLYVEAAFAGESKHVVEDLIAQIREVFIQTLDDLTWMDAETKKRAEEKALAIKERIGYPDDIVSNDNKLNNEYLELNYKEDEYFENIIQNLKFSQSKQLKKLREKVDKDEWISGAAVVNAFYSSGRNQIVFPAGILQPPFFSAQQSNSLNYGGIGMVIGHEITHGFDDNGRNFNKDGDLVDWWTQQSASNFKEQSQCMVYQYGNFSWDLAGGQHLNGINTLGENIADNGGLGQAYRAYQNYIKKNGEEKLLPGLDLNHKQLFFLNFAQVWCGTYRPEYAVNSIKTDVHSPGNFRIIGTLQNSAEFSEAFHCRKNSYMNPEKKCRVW
Description: Ratio enzyme (units):peptide (μmoles)˜1:33. […] Ratio enzyme (units):peptide (μmoles)˜1:2.5.
15 μL aliquots (˜15 μg initial peptide) of the peptide-enzyme mixture were periodically withdrawn (t=0, 30 mins, 1 hr, 2 hr, 4 hr, 8 hr, 24 hr) and quenched immediately by addition to an equal volume (15 μL) of 5% TFA (v/v) in 1:1 water/acetonitrile to arrest proteolytic activity. 20 μL aliquots (˜10 μg initial peptide) were analyzed by LC/MS and/or analytical RP-HPLC as follows: LC/MS method: Agilent Polaris C8-A column (4.6×100 mm, 3 micron) eluted with a linear binary gradient of 10-90% MeCN (0.1% TFA v/v) in water (0.1% TFA v/v) over 30 mins at 1.5 mL min-1 at ambient temperature with detection by both UV absorption at 210 nm and ionization using a Waters 3100 mass detector (ESI+ mode). Peptide fragments deriving from enzymatic hydrolysis were identified by molecular weight, allowing location of the site of cleavage. Analytical RP-HPLC method: Agilent Polaris C8-A column (4.6×100 mm, 3 micron) eluted with a linear binary gradient of 10-90% MeCN (0.1% TFA v/v) in water (0.1% TFA v/v) over either 10 or 15 mins at 1.5 mL min^−1 at 40° C. with detection by UV absorption at 210 nm. Manual integration (AUC) allowed estimation of remaining intact peptide over the time course of the experiment.
25 μL aliquots (˜6 μg initial peptide) were analyzed by LC/MS and/or analytical RP-HPLC as follows: LC/MS method: Agilent Polaris C8-A column (4.6×100 mm, 3 micron) eluted with a linear binary gradient of 10-90% MeCN (0.1% TFA v/v) in water (0.1% TFA v/v) over 30 mins at 1.5 mL min^−1 at ambient temperature with detection by both UV absorption at 210 nm and ionization using a Waters 3100 mass detector (ESP mode). Peptide fragments deriving from enzymatic hydrolysis were identified by molecular weight, allowing location of the site of cleavage. Analytical RP-HPLC method: Agilent Polaris C8-A column (4.6×100 mm, 3 micron) eluted with a linear binary gradient of 10-90% MeCN (0.1% TFA v/v) in water (0.1% TFA v/v) over either 10 or 15 mins at 1.5 mL min^−1 at 40° C. with detection by UV absorption at 210 nm. Manual integration (AUC) allowed estimation of remaining intact peptide over the time course of the experiment.

[5] = target: T5, pepsin (Sus scrofa, UniProt P00791); experiment: Proteolytic resistance to pepsin (% remaining intact peptide, RP-HPLC AUC); type: in vitro ADME; settings: pig, porcine pepsin, 37° C., pH 2.0, read-out: Percentage remaining intact peptide (AUC by RP-HPLC) upon incubation with pepsin
T5 construct: purchased Sigma P7012
T5 sequence (P00791 60-385): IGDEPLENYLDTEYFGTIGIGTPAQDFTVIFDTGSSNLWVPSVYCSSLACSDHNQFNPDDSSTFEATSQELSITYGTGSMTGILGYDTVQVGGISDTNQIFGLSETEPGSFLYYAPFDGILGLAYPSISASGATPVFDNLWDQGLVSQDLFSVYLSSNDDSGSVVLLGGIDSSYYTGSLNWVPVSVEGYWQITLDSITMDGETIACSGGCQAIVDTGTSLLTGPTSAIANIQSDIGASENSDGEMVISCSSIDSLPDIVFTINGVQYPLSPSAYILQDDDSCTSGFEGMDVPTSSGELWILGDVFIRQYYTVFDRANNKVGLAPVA
Description: Lyophilized porcine […] pepsin (Sigma: P7012) was reconstituted to afford a solution of 200 μg/mL (˜500 units/mL) in assay buffer (0.1 M HCl, pH 2.0) to give the enzyme stock solution. […] Ratio enzyme (units):peptide (μmoles)˜1:6. […] Ratio enzyme (units):peptide (μmoles)˜2:1.
Lyophilized porcine […] pepsin (Sigma: P7012) was reconstituted to 200 μg/mL (˜500 units/mL) in assay buffer (1.0 M HCl, pH 2.0) to give the enzyme stock solution.

[6] = target: T6, human GLP-1 receptor (GLP-1R) (Homo sapiens, UniProt P43220); experiment: cAMP assay, human GLP-1R cells; type: cell-based; settings: bis-lipidated peptides
T6 construct: expressed in transfected cells
T6 sequence (P43220 24-463): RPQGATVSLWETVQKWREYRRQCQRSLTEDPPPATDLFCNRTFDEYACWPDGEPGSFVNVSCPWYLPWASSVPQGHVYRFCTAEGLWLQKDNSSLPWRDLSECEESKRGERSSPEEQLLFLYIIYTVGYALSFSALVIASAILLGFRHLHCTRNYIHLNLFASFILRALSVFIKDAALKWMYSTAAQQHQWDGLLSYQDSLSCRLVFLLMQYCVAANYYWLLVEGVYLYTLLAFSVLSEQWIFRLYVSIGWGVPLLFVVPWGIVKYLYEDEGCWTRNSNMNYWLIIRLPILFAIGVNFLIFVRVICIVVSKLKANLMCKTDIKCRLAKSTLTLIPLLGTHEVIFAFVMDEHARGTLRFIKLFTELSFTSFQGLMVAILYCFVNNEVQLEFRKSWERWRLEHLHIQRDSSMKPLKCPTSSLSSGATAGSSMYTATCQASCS
Procedure, shortened: as §1

[7] = target: T7, trypsin (Sus scrofa, UniProt P00761); experiment: Proteolytic resistance to trypsin (% remaining intact peptide, RP-HPLC AUC); type: in vitro ADME; settings: pig, porcine pancreatic trypsin, 37° C., pH 7.8, read-out: Percentage remaining intact peptide (AUC by RP-HPLC) upon incubation with trypsin
T7 construct: purchased Sigma T7409
T7 sequence (P00761 9-231): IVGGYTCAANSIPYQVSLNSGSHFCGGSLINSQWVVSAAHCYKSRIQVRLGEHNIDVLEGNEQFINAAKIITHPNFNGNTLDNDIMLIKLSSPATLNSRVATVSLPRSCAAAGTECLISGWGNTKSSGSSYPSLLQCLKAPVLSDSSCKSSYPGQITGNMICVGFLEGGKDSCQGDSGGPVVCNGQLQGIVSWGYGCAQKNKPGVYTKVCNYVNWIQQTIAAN
Source text: Ratio enzyme (units):peptide (μmoles)˜1:11. […] Ratio enzyme (units):peptide (μmoles)˜1.2:1.

EC50 ([1]; mono-lipidated peptides, mean of n1 and n2, read-out: INS1e assay EC50 Mean pM GLP-1R): 6 pM | EC50 ([1]; mono-lipidated peptides, replicate n1, read-out: INS1e assay EC50 GLP-1R n1): 5.1 pM | EC50 ([1]; mono-lipidated peptides, replicate n2, read-out: INS1e assay EC50 GLP-1R n2): 7.87 pM | EC50 ([2]; first determination (n1), read-out: Primary assay EC50 Gluc-R (n1)): ≥ 31 nM | EC50 ([2]; second determination (n2), read-out: Primary assay EC50 Gluc-R (n2)): ≥ 31 nM | EC50 ([3]; first determination (n1), read-out: Primary assay EC50 GIP-R (n1)): ≥ 31 nM | EC50 ([3]; second determination (n2), read-out: Primary assay EC50 GIP-R (n2)): ≥ 31 nM | Percentage remaining peptide (AUC at specified time-point by RP-HPLC) upon incubation with neprilysin, t = 0 [4]: 100%
SMILES: CC[C@H](C)[C@H](NC(=O)[C@](C)(Cc1ccccc1)NC(=O)[C@H](CCC(=O)O)NC(=O)[C@](C)(CCCCN)NC(=O)[C@H](C)NC(=O)[C@H](C)NC(=O)[C@H](CCC(=O)O)NC(=O)CNC(=O)[C@H](CCC(=O)O)NC(=O)[C@H](CC(C)C)NC(=O)[C@](C)(Cc1ccccc1)NC(=O)[C@H](CO)NC(=O)[C@](C)(CO)NC(=O)[C@@H](NC(=O)[C@H](CC(=O)O)NC(=O)[C@H](CO)NC(=O)[C@@H](NC(=O)[C@](C)(Cc1ccccc1)NC(=O)[C@H](CO)NC(=O)CNC(=O)[C@H](CCC(=O)O)NC(=O)C(C)(C)NC(=O)[C@@H](N)Cc1c[nH]cn1)[C@@H](C)O)C(C)C)C(=O)N[C@@H](C)C(=O)N[C@@](C)(Cc1ccccc1)C(=O)N[C@H](C(=O)N[C@H](C(=O)N[C@@](C)(CCCCN)C(=O)NCC(=O)NCC(N)=O)C(C)C)C(C)C [compound 17]

remaining at 0.5 h ([5]; t = 30 min): 74.9% | remaining at 1 h ([5]; t = 1 hr): 55.8% | remaining at 2 h ([5]; t = 2 hr): 38.6% | remaining at 4 h ([5]; t = 4 hr): 22.4% | remaining at 8 h ([5]; t = 8 hr): 13.4% | remaining at 24 h ([5]; t = 24 hr): 0% | EC50 ([6]; mean of n1 and n2, read-out: Primary assay EC50 Mean pM GLP-1R): 4.6 pM | EC50 ([6]; replicate n1, read-out: Primary assay EC50 GLP-1R n1): 4.01 pM | EC50 ([6]; replicate n2, read-out: Primary assay EC50 GLP-1R n2): 5.24 pM | EC50 ([1]; bis-lipidated peptides, mean of n1 and n2, read-out: INS1e assay EC50 Mean pM GLP-1R): 212 pM | EC50 ([1]; bis-lipidated peptides, replicate n1, read-out: INS1e assay EC50 GLP-1R n1): 243 pM | EC50 ([1]; bis-lipidated peptides, replicate n2, read-out: INS1e assay EC50 GLP-1R n2): 181 pM | remaining at 0.5 h ([4]; recombinant neprilysin, t = 30 min): 95.7% | remaining at 1 h ([4]; recombinant neprilysin, t = 1 hr): 92.8% | remaining at 4 h ([4]; recombinant neprilysin, t = 4 hr): 95.3% | remaining at 8 h ([4]; recombinant neprilysin, t = 8 hr): 89.7% | remaining at 24 h ([4]; recombinant neprilysin, t = 24 hr, read-out: Percentage remaining peptide (AUC at specified time-point by RP-HPLC) upon incubation with neprilysin, t = 24 hr): 89.3% | Percentage remaining peptide (AUC at specified time-point by RP-HPLC) upon incubation with neprilysin, t = 0 [4]: 100% | remaining at 0.5 h ([7]; t = 30 min): 96.8% | remaining at 1 h ([7]; t = 1 hr): 95.2% | remaining at 2 h ([7]; t = 2 hr): 89.9% | remaining at 4 h ([7]; t = 4 hr): 85.2% | remaining at 8 h ([7]; t = 8 hr): 82.9% | remaining at 24 h ([7]; t = 24 hr): 74.7%
SMILES: CCCCCCCCCCCC(=O)N[C@@H](CCC(=O)NCCOCCOCC(=O)NCCOCCOCC(=O)NCCCC[C@H](NC(=O)[C@H](C)NC(=O)[C@@H](NC(=O)[C@H](Cc1ccccc1)NC(=O)[C@H](CCC(=O)O)NC(=O)[C@](C)(CCCCN)NC(=O)[C@H](C)NC(=O)[C@H](C)NC(=O)[C@H](CCC(=O)O)NC(=O)CNC(=O)[C@H](CCC(=O)O)NC(=O)[C@H](CCCCNC(=O)COCCOCCNC(=O)COCCOCCNC(=O)CC[C@H](NC(=O)CCCCCCCCCCC)C(=O)O)NC(=O)[C@H](Cc1ccc(O)cc1)NC(=O)[C@H](CO)NC(=O)[C@](C)(CO)NC(=O)[C@@H](NC(=O)[C@H](CC(=O)O)NC(=O)[C@H](CO)NC(=O)[C@@H](NC(=O)[C@](C)(Cc1ccccc1)NC(=O)[C@H](CO)NC(=O)CNC(=O)[C@H](CCC(=O)O)NC(=O)C(C)(C)NC(=O)[C@@H](N)Cc1c[nH]cn1)[C@@H](C)O)C(C)C)[C@@H](C)CC)C(=O)N[C@H](C(=O)N[C@H](C(=O)N[C@@H](CCC(=O)O)C(=O)NCC(=O)NCC(N)=O)C(C)C)C(C)C)C(=O)O [compound 269] (H-H[Aib]EGS[αMeF]TSDV[αMeS]SYK([AEEA-AEEA-γGlu-Lauroyl])EGEAA[αMeK]EFIAK([AEEA-AEEA-γGlu-Lauroyl])VVEGG-NH2)

Percentage remaining peptide (AUC at specified time-point by RP-HPLC) upon incubation with neprilysin, t = 0 [4]: 100%
SMILES: CCCCCCCCCCCCCCCC(=O)NCCCC[C@H](NC(=O)CNC(=O)CNC(=O)[C@](C)(CCCCN)NC(=O)[C@@H](NC(=O)[C@@H](NC(=O)[C@](C)(Cc1ccccc1)NC(=O)[C@H](C)NC(=O)[C@@H](NC(=O)[C@](C)(Cc1ccccc1)NC(=O)[C@H](CCC(=O)O)NC(=O)[C@](C)(CCCCN)NC(=O)[C@H](C)NC(=O)[C@H](C)NC(=O)[C@H](CCC(N)=O)NC(=O)CNC(=O)[C@H](CCC(=O)O)NC(=O)[C@H](CC(C)C)NC(=O)[C@](C)(Cc1ccccc1)NC(=O)[C@H](CO)NC(=O)[C@H](CO)NC(=O)[C@@H](NC(=O)[C@H](CC(=O)O)NC(=O)[C@H](CO)NC(=O)[C@@H](NC(=O)[C@](C)(Cc1ccccc1)NC(=O)[C@H](CO)NC(=O)CNC(=O)[C@H](CCC(=O)O)NC(=O)C(C)(C)NC(=O)[C@@H](N)Cc1c[nH]cn1)[C@@H](C)O)C(C)C)[C@@H](C)CC)C(C)C)C(C)C)C(N)=O [compound 489] (H-H[Aib]EGS[αMeF]TSDVSS[αMeF]LEGQAA[αMeK]E[αMeF]IA[αMeF]VV[αMeK]GGK(Palmitoyl)-NH2)
